Experimental data taken from patent publication US12077503B2, “Substituted cyclic amides and their use as herbicides” (FMC CORPORATION, priority 2015, dated 2024).
Read-outs that look alike come from different tables or passages of the source.

Key:
Format in all cases: in vivo
Kochia (Kochia scoparia) [1] = test: Test A preemergence; details: Bassia scoparia, pre-emergence, 240 h; for pest or weed control at 125 g/ha: 125 g ai/ha; for pest or weed control at 500 g/ha: 500 g ai/ha, visual injury rating about 10 d after treatment, 0 to 100 scale (0 no effect, 100 complete control)
In short: (§1)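 Preemergence soil spray on seeded pots or post-emergence spray on 1–2 leaf plants, in loam–sand blend. Greenhouse ~10 d. Visual rating 0–100 against untreated plants.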

[2] = system: barnyardgrass (Echinochloa crus-galli); test: Test A preemergence; details: Echinochloa crus-galli, pre-emergence, 240 h; for pest or weed control at 125 g/ha: 125 g ai/ha; for pest or weed control at 500 g/ha: 500 g ai/ha, visual injury rating about 10 d after treatment, 0 to 100 scale (0 no effect, 100 complete control)
In short: as §1

[3] = system: pigweed (Amaranthus retroflexus); test: Test A preemergence; details: Amaranthus retroflexus, pre-emergence, 240 h; for pest or weed control at 125 g/ha: 125 g ai/ha; for pest or weed control at 500 g/ha: 500 g ai/ha, visual injury rating about 10 d after treatment, 0 to 100 scale (0 no effect, 100 complete control)
[4] = system: ragweed (common ragweed, Ambrosia elatior); test: Test A preemergence; details: Ambrosia artemisiifolia, pre-emergence, 240 h; for pest or weed control at 125 g/ha: 125 g ai/ha; for pest or weed control at 500 g/ha: 500 g ai/ha, visual injury rating about 10 d after treatment, 0 to 100 scale (0 no effect, 100 complete control)
In short: as §1

[5] = system: ryegrass, Italian (Italian ryegrass, Lolium multiflorum); test: Test A preemergence; details: Lolium multiflorum, pre-emergence, 240 h; for pest or weed control at 125 g/ha: 125 g ai/ha; for pest or weed control at 500 g/ha: 500 g ai/ha, visual injury rating about 10 d after treatment, 0 to 100 scale (0 no effect, 100 complete control)
In short: as §1

[6] = system: Galium (catchweed bedstraw, Galium aparine); test: Test A postemergence; details: Galium, post-emergence, 240 h, postemergence; for pest or weed control at 125 g/ha: 125 g ai/ha, visual injury on 0 to 100 scale (0 no effect, 100 complete control); for pest or weed control at 500 g/ha: 500 g ai/ha
In short: as §1

Kochia (Kochia scoparia) [7] = test: Test A postemergence; details: Bassia scoparia, post-emergence, 240 h, postemergence; for pest or weed control at 125 g/ha: 125 g ai/ha, visual injury on 0 to 100 scale (0 no effect, 100 complete control); for pest or weed control at 500 g/ha: 500 g ai/ha
In short: as §1

[8] = system: barnyardgrass (Echinochloa crus-galli); test: Test A postemergence; details: Echinochloa crus-galli, post-emergence, 240 h; for pest or weed control at 125 g/ha: 125 g ai/ha; for pest or weed control at 500 g/ha: 500 g ai/ha
In short: as §1

[9] = system: blackgrass (Alopecurus myosuroides); test: Test A postemergence; details: Alopecurus myosuroides, post-emergence, 240 h; for pest or weed control at 125 g/ha: 125 g ai/ha; for pest or weed control at 500 g/ha: 500 g ai/ha
In short: as §1

corn (Zea mays) = test: Test A postemergence; details: Zea mays, post-emergence, 240 h
In short: as §1

[10] = system: giant foxtail (Setaria faberii); test: Test A postemergence; details: Setaria faberi, post-emergence, 240 h, postemergence; for pest or weed control at 125 g/ha: 125 g ai/ha, visual injury on 0 to 100 scale (0 no effect, 100 complete control); for pest or weed control at 500 g/ha: 500 g ai/ha
In short: as §1

[11] = system: pigweed (Amaranthus retroflexus); test: Test A postemergence; details: Amaranthus retroflexus, post-emergence, 240 h, postemergence, read-out: Pigweed plant response rating; for pest or weed control at 125 g/ha: 125 g ai/ha, visual injury on 0 to 100 scale (0 no effect, 100 complete control), approx. 10 d
In short: as §1

[12] = system: ragweed (common ragweed, Ambrosia elatior); test: Test A postemergence; details: Ambrosia artemisiifolia, post-emergence, 240 h, postemergence, read-out: Ragweed plant response rating; for pest or weed control at 125 g/ha: 125 g ai/ha, visual injury on 0 to 100 scale (0 no effect, 100 complete control), approx. 10 d
In short: as §1

[13] = system: ryegrass, Italian (Italian ryegrass, Lolium multiflorum); test: Test A postemergence; details: Lolium multiflorum, post-emergence, 240 h, postemergence, read-out: Ryegrass, Italian plant response rating; for pest or weed control at 125 g/ha: 125 g ai/ha, visual injury on 0 to 100 scale (0 no effect, 100 complete control), approx. 10 d
In short: as §1

[14] = system: wheat (Triticum aestivum); test: Test A postemergence; details: Triticum aestivum, post-emergence, 240 h, postemergence, read-out: Wheat plant response rating; for plant injury at 125 g/ha: 125 g ai/ha, visual injury on 0 to 100 scale (0 no effect, 100 complete control), approx. 10 d
In short: as §1

[15] = preemergence, read-out: Kochia plant response rating
[16] = preemergence, read-out: Barnyardgrass plant response rating
[17] = preemergence, read-out: Pigweed plant response rating
[18] = preemergence, read-out: Ragweed plant response rating
[19] = preemergence, read-out: Ryegrass, Italian plant response rating
[20] = approx. 10 d, read-out: Galium plant response rating
[21] = approx. 10 d, read-out: Kochia plant response rating
[22] = approx. 10 d, read-out: Foxtail, Giant plant response rating
[23] = 500 g ai/ha, 0 to 100 scale, 0 is no effect, 100 is complete control

## CN1C[C@H](c2cc(F)cc(F)c2)[C@@H](C(=O)Nc2cnccc2Cl)C1=O [Compound 1096]
Kochia (Kochia scoparia) [1]; preemergence, 0 to 100 scale where 0 is no effect and 100 is complete control, approx. 10 d, read-out: Kochia plant response rating
  pest or weed control at 125 g/ha: 0%
Kochia (Kochia scoparia) [1]; [15]
  pest or weed control at 500 g/ha: 0%
[2]; preemergence, 0 to 100 scale where 0 is no effect and 100 is complete control, approx. 10 d, read-out: Barnyardgrass plant response rating
  pest or weed control at 125 g/ha: 0%
[2]; [16]
  pest or weed control at 500 g/ha: 0%
[3]; preemergence, 0 to 100 scale where 0 is no effect and 100 is complete control, approx. 10 d, read-out: Pigweed plant response rating
  pest or weed control at 125 g/ha: 0%
[3]; [17]
  pest or weed control at 500 g/ha: 0%
[4]; preemergence, 0 to 100 scale where 0 is no effect and 100 is complete control, approx. 10 d, read-out: Ragweed plant response rating
  pest or weed control at 125 g/ha: 0%
[4]; [18]
  pest or weed control at 500 g/ha: 0%
[5]; preemergence, 0 to 100 scale where 0 is no effect and 100 is complete control, approx. 10 d, read-out: Ryegrass, Italian plant response rating
  pest or weed control at 125 g/ha: 0%
[5]; [19]
  pest or weed control at 500 g/ha: 0%
[6]; [20]
  pest or weed control at 125 g/ha: 0%
[6]; 0 to 100 scale, 0 is no effect, 100 is complete control, read-out: Galium plant response rating
  pest or weed control at 500 g/ha: 0%
Kochia (Kochia scoparia) [7]; [21]
  pest or weed control at 125 g/ha: 0%
Kochia (Kochia scoparia) [7]; 0 to 100 scale, 0 is no effect, 100 is complete control, read-out: Kochia plant response rating
  pest or weed control at 500 g/ha: 0%
[8]; postemergence, visual injury on 0 to 100 scale (0 no effect, 100 complete control), approx. 10 d, read-out: Barnyardgrass plant response rating
  pest or weed control at 125 g/ha: 0%
[8]; postemergence, 0 to 100 scale, 0 is no effect, 100 is complete control, read-out: Barnyardgrass plant response rating
  pest or weed control at 500 g/ha: 0%
[9]; postemergence, visual injury on 0 to 100 scale (0 no effect, 100 complete control), approx. 10 d, read-out: Blackgrass plant response rating
  pest or weed control at 125 g/ha: 0%
[9]; postemergence, 0 to 100 scale, 0 is no effect, 100 is complete control, read-out: Blackgrass plant response rating
  pest or weed control at 500 g/ha: 0%
Corn (Zea mays); 125 g ai/ha, postemergence, visual injury on 0 to 100 scale (0 no effect, 100 complete control), approx. 10 d, read-out: Corn plant response rating
  plant injury at 125 g/ha: 0%
Corn (Zea mays); 500 g ai/ha, postemergence, 0 to 100 scale, 0 is no effect, 100 is complete control, read-out: Corn plant response rating
  plant injury at 500 g/ha: 0%
[10]; [22]
  pest or weed control at 125 g/ha: 0%
[10]; 0 to 100 scale, 0 is no effect, 100 is complete control, read-out: Foxtail, Giant plant response rating
  pest or weed control at 500 g/ha: 0%
[11]
  pest or weed control at 125 g/ha: 0%
[11]; [23]
  pest or weed control at 500 g/ha: 0%
[12]
  pest or weed control at 125 g/ha: 0%
[12]; [23]
  pest or weed control at 500 g/ha: 0%
[13]
  pest or weed control at 125 g/ha: 0%
[13]; [23]
  pest or weed control at 500 g/ha: 0%
[14]
  plant injury at 125 g/ha: 0%
[14]; [23]
  plant injury at 500 g/ha: 0%

## Cc1ccc([C@H]2CN(C)C(=O)[C@@H]2C(=O)Nc2ccccc2F)cc1C [Compound 1038]
Kochia (Kochia scoparia) [1]; Preemergence, visual injury rating after approximately 10 d, read-out: Kochia plant response rating (0 to 100 scale, 0 is no effect, 100 is complete control)
  pest or weed control at 125 g/ha: 80%
Kochia (Kochia scoparia) [1]; [15]
  pest or weed control at 500 g/ha: 80%
[2]; Preemergence, visual injury rating after approximately 10 d, read-out: Barnyardgrass plant response rating (0 to 100 scale, 0 is no effect, 100 is complete control)
  pest or weed control at 125 g/ha: 100%
[2]; [16]
  pest or weed control at 500 g/ha: 100%
[3]; Preemergence, visual injury rating after approximately 10 d, read-out: Pigweed plant response rating (0 to 100 scale, 0 is no effect, 100 is complete control)
  pest or weed control at 125 g/ha: 20%
[3]; [17]
  pest or weed control at 500 g/ha: 30%
[4]; Preemergence, visual injury rating after approximately 10 d, read-out: Ragweed plant response rating (0 to 100 scale, 0 is no effect, 100 is complete control)
  pest or weed control at 125 g/ha: 20%
[4]; [18]
  pest or weed control at 500 g/ha: 70%
[5]; Preemergence, visual injury rating after approximately 10 d, read-out: Ryegrass, Italian plant response rating (0 to 100 scale, 0 is no effect, 100 is complete control)
  pest or weed control at 125 g/ha: 30%
[5]; [19]
  pest or weed control at 500 g/ha: 70%
[6]; [20]
  pest or weed control at 125 g/ha: 50%
[6]; visual injury, 0 to 100 scale (0 no effect, 100 complete control), approx. 10 d, read-out: Plant response rating, Galium
  pest or weed control at 500 g/ha: 70%
Kochia (Kochia scoparia) [7]; [21]
  pest or weed control at 125 g/ha: 40%
Kochia (Kochia scoparia) [7]; visual injury, 0 to 100 scale (0 no effect, 100 complete control), approx. 10 d, read-out: Plant response rating, Kochia
  pest or weed control at 500 g/ha: 80%
[8]; Postemergence, visual injury after approximately 10 d, 0 to 100 scale where 0 is no effect and 100 is complete control, read-out: Plant response rating, Barnyardgrass
  pest or weed control at 125 g/ha: 90%
[8]; postemergence, visual injury, 0 to 100 scale (0 no effect, 100 complete control), approx. 10 d, read-out: Plant response rating, Barnyardgrass
  pest or weed control at 500 g/ha: 90%
[9]; Postemergence, visual injury after approximately 10 d, 0 to 100 scale where 0 is no effect and 100 is complete control, read-out: Plant response rating, Blackgrass
  pest or weed control at 125 g/ha: 30%
[9]; postemergence, visual injury, 0 to 100 scale (0 no effect, 100 complete control), approx. 10 d, read-out: Plant response rating, Blackgrass
  pest or weed control at 500 g/ha: 50%
Corn (Zea mays); 125 g ai/ha, Postemergence, visual injury after approximately 10 d, 0 to 100 scale where 0 is no effect and 100 is complete control
  Corn plant response rating (crop injury, 0 = no effect, 100 = complete kill) at 125 g/ha: 60%
Corn (Zea mays); 500 g ai/ha, postemergence, visual injury, 0 to 100 scale (0 no effect, 100 complete control), approx. 10 d
  Corn plant response rating (crop injury, 0 = no effect, 100 = complete kill) at 500 g/ha: 80%
[10]; [22]
  pest or weed control at 125 g/ha: 90%
[10]; visual injury, 0 to 100 scale (0 no effect, 100 complete control), approx. 10 d, read-out: Plant response rating, Foxtail, Giant
  pest or weed control at 500 g/ha: 90%
[11]
  pest or weed control at 125 g/ha: 0%
[12]
  pest or weed control at 125 g/ha: 0%
[13]
  pest or weed control at 125 g/ha: 20%
[14]
  plant injury at 125 g/ha: 20%
